Residues, ends and D or L forms follow the SMILES beside them. *: point of attachment. Cbz = O=C(OCc1ccccc1)*
Legend:
[1] = system: human Tau; experiment: Sarkosyl fractionation and Tau immunoblot, hTau-KI primary cortical neurons; format: cell-based; details: 1 μM, 12 hours, vs DMSO
From the text: (§1) (FIG. 5A) Effect of neuroproteasome-specific inhibitor iBEp on Tau aggregation in primary neurons. […] Quantification of soluble and insoluble murine Tau (mTau) intensities normalized to soluble GAPDH. […] (FIG. 5B) Effect of neuroproteasome inhibition on aggregation of human Tau (hTau). […] (FIG. 5C) Generation of reversible neuroproteasome inhibitors to test effects of neuroproteasome inhibition. (Top) Structure of Sulfo-MG132 (SulfoMG). […] (FIG. 5D) Effect of reversible neuroproteasome inhibition using SulfoMG on Tau aggregation. […] Quantification of soluble and insoluble Tau intensities were normalized to soluble GAPDH. Data (right) are mean±SEM normalized respective to DMSO controls. […] (FIG. 5E) Testing iBEp permeability in vivo. […] 72 hours post injection, hippocampi were isolated and subjected to membrane fractionation without detergent. […] (FIG. 5F) Effect of neuroproteasome inhibition on Tau aggregation in vivo.

[2] = system: p62, LC3bI/II, Ulk1; experiment: Autophagy marker immunoblot in primary neurons; format: cell-based, mouse; details: 12 hours, DIV14 WT primary cortical neurons
From the text: (FIG. 4A) (Top) Structure of azide-PEG24-epoxomicin handle to enable rapid conjugation of linkers to global proteasome inhibitor epoxomicin using Click chemistry. (Bottom) Structure of Neuroproteasome-specific inhibitor impermeant Biotin-PEG24-Epoxomicin (iBEp). (FIG. 4B) Assessing permeability of iBEp in primary neurons. […] Cytosolic (Cyto) and membrane (Mem) fractions were immunoblotted using indicated antibodies. (FIG. 4C) Proteasome catalytic activity of membrane (Mem) and cytosolic (Cyto) fractions of neurons treated with iBEp. […] Proteasome catalytic activity was assessed by monitoring degradation of Suc-LLVY-AMC; proteasome-dependent cleavage of the substrate increases AMC fluorescence. N=3 biological replicates. **** p<0.0001 by One-Way ANOVA. (FIG. 4D) Primary neurons treated with iBEp probed for autophagy markers. […] Lysates were immunoblotted using indicated antibodies against common autophagy markers. Quantification of p62, LC3b, and Ulk1 intensities normalized to Actin. […] (FIG. 4E) Schematic to analyze changes in sarkosyl-soluble and insoluble proteomes in response to neuroproteasome inhibition. […] Sarkosyl-soluble and insoluble fractions were labeled with Tandem Mass Tags (TMTpro) for quantitative mass spectrometry. (FIG. 4F) Differential enrichment of proteins in the sarkosyl-soluble fraction of neurons treated with iBEp versus DMSO was analyzed and plotted as log 2-fold change vs-log 10 (P-value). Green dots represent proteins enriched in the iBEp treatment compared to DMSO treatment. (FIG. 4G) Graphs plotting the log 2-fold change of select Neuroproteasome substrates enriched in the sarkosyl-soluble fraction from MS analysis in (FIG. 4F) compared to UPS substrates and autophagy markers ** p<0.01 (adjusted p-value after multiple corrections). (FIG. 4H) Differential enrichment of proteins in the sarkosyl-insoluble fraction of neurons treated with iBEp versus DMSO was analyzed and plotted as log 2-fold change vs −log 10 (P-value). Green dots represent proteins enriched in the iBEp treatment compared to DMSO treatment. (FIG. 4I) (Left) Identification of proteins which are exclusively enriched in the insoluble fraction with no corresponding change in the soluble fraction (red). Plk2 represents the only protein which is enriched in the soluble fraction with no corresponding change in the insoluble fraction (green). Proteins plotted as differences in log 2 fold changes. (Right) Graphs plotting the log 2 fold changes of insoluble Tau (top) and soluble Tau (bottom) enriched in neurons treated with iBEp vs DMSO. ** p<0.01 (adjusted p-value after multiple corrections).
FIG. 5A-5G: Neuroproteasomes are differentially regulated by ApoE isoforms to determine formation of endogenous sarkosyl-insoluble Tau inclusions. […]

[3] = system: endogenous mouse Tau; experiment: Sarkosyl fractionation and Tau immunoblot, WT primary cortical neurons; format: cell-based; details: 1 μM, 12 hours, vs DMSO
From the text: as §1

CC(C)C[C@@H](C=O)NC(=O)[C@H](CC(C)C)NC(=O)[C@H](CC(C)C)NC(=O)OCc1ccccc1 [MG132, reference compound] (Cbz-Leu-Leu-Leu-aldehyde)
sarkosyl-insoluble Tau, hTau-KI neurons [1]: does not affect the sarkosyl-insoluble accumulation of Tau

CC[C@H](C)[C@H](NC(=O)[C@H]([C@@H](C)CC)N(C)C(C)=O)C(=O)N[C@H](C(=O)N[C@@H](CC(C)C)C(=O)[C@@]1(C)CO1)[C@@H](C)O [Epoxomicin, reference compound]
LC3bI/II [2]: little to no change in LC3bI/II
p62 levels [2]: strong induction of p62
sarkosyl-insoluble Tau, WT neurons [3]: no change in sarkosyl-insoluble Tau
sarkosyl-insoluble Tau, hTau-KI neurons [1]: no change in sarkosyl-insoluble Tau
